pIC50: −log10 of the molar value.
Each compound was assayed on production of TNF by monocytes activated with bacterial lipopolysaccharide (LPS) (assay: Lipopolysaccharide-activated monocyte TNF production assay). Settings: Homo sapiens, read-out: IC50 values in the monocyte assay (LPS induced TNF release).
Type: cell-based
Description: Lipopolysaccharide-Activated Monocyte TNF Production Assay
Test compounds were evaluated in vitro for the ability to inhibit the production of TNF by monocytes activated with bacterial lipopolysaccharide (LPS). Fresh residual source leukocytes (a byproduct of plateletpheresis) were obtained from a local blood bank, and peripheral blood mononuclear cells (PBMCs) were isolated by density gradient centrifugation on Ficol-Paque Plus (Pharmacia). PBMCs were suspended at 2×10^6/ml in DMEM supplemented to contain 2% FCS, 10 mM, 0.3 mg/ml […], 100 U/ml penicillin G and […] streptomycin sulfate (complete media). Cells were plated into Falcon flat bottom, 96 well culture plates (200 μl/well) and cultured overnight at 37° C. and 6% CO2. Non-adherent cells were removed by washing with 200 μl/well of fresh medium. Wells containing adherent cells (˜70% monocytes) were replenished with 100 μl of fresh medium.
Preparation of Test Compound Stock Solutions
Test compounds were dissolved in […]. Compound stock solutions were prepared to an initial concentration of […]. Stocks were diluted initially to 20-200 μM in complete media. Nine two-fold serial dilutions of each compound were then prepared in complete medium.
Treatment of Cells with Test Compounds and Activation of TNF Production with Lipopolysaccharide
One hundred microliters of each test compound dilution were added to microtiter wells containing adherent monocytes and 100 μl complete medium. Monocytes were cultured with test compounds for 60 min at which time 25 μl of complete medium containing 30 ng/ml lipopolysaccharide from E. coli K532 were added to each well. Cells were cultured an additional 4 hrs. Culture supernatants were then removed and TNF presence in the supernatants was quantified using an ELISA.
Flat bottom, 96 well Corning High Binding ELISA plates were coated overnight (4° C.) with 150 μL/well of 3 μg/ml murine anti-human TNF-α MAb (R&D Systems #MAB210). Wells were then blocked for 1 hr at room temperature with 200 μL/well of CaCl2-free ELISA buffer supplemented to contain 20 mg/ml BSA (standard ELISA buffer: […], 150 mM NaCl, 2 mM CaCl2, 0.15 mM thimerosal, pH 7.4). Plates were washed and replenished with 100 μl of test supernatants (diluted 1:3) or standards. Standards consisted of eleven 1.5-fold serial dilutions from a stock of 1 ng/ml recombinant human TNF (R&D Systems). Plates were incubated at room temperature for 1 hr on orbital shaker (300 rpm), washed and replenished with 100 μl/well of 0.5 ug/ml goat anti-human TNF-α (R&D systems #AB-210-NA) biotinylated at a 4:1 ratio. Plates were incubated for 40 min, washed and replenished with 100 μl/well of alkaline phosphatase-conjugated streptavidin (Jackson ImmunoResearch #016-050-084) at 0.02 ug/ml. Plates were incubated 30 min, washed and replenished with 200 μl/well of 1 mg/ml of p-nitrophenyl phosphate. After 30 min, plates were read at 405 nm on a Vmax plate reader.
Standard curve data were fit to a second order polynomial and unknown TNF-α concentrations determined from their OD by solving this equation for concentration. TNF concentrations were then plotted vs. test compound concentration using a second order polynomial. This equation was then used to calculate the concentration of test compounds causing a 50% reduction in TNF production.
`CCN(CC)CC(=O)Nc1cccc(NC(=O)c2ccc(C)c(-c3ccc4nc(N)ncc4c3)c2)c1C` [Example 63, 3-(2-amino-6-quinazolinyl)-N-(3-((N,N-diethylglycyl)amino)-2-methyiphenyl)-4-methylbenzamide] gave a pIC50 of no less than 4.60.
`Cc1ccc(C(=O)Nc2ccc3c(c2)N(C(=O)CN2CCOCC2)CC3(C)C)cc1-c1ccc2nc(N)ncc2c1` [Example 65, 3-(2-amino-6-quinazolinyl)-N-(3,3-dimethyl-1-(4-morpholinytacetyl)-2,3-dihydro-1H-indol-6-yl)-4-methylbenzamide] showed a pIC50 of no less than 4.60.
Work on `Cc1ccc(C(=O)Nc2cccc(C(F)(F)F)c2F)cc1-c1ccc2nc(NCCCN3CCOCC3)ncc2c1` [Example 23, N-(2-fluoro-3-(trifluoromethyl)phenyl)-4-methyl-3-(2-((3-(4-morpholinyl)propyl)amino)-6-quinazolinyl) benzamide] yielded a pIC50 of no less than 4.60.
In the case of `COc1c(Cl)cccc1NC(=O)c1ccc(C)c(-c2ccc3nc(N)ncc3c2)c1` [Example 284, 3-(2-amino-6-quinazolinyl)-N-(5-chloro-8-(methyloxy)-phenyl)-4-methylbenzamide], the pIC50 was no less than 4.60.
Work on `Cc1ccc(C(=O)Oc2c(F)c(F)c(F)c(F)c2F)cc1-c1ccc2nc(N)ncc2c1` [Example 423, Perfluorophenyl-3-(2-aminoquinazolin-6-yl)-4-methylbenzoate] yielded a pIC50 of no less than 4.60.
`COc1ccc(OCCCN2CCN(C)CC2)cc1NC(=O)c1ccc(C)c(-c2ccc3nc(N)ncc3c2)c1` [Example 235] showed a pIC50 of no less than 4.60.
`CCN(CC)CCOc1ccc(OC)c(NC(=O)c2ccc(C)c(-c3ccc4nc(N)ncc4c3)c2)c1` [Example 71, 3-(2-amino-6-quinazolinyl)-N-(5-((2-(diethylamino)ethyl)oxy)-2-(methyloxy)phenyl)-4-methylbenzamide] was tested, and the pIC50 was no less than 4.60.
With `CNc1ncc2cc(-c3cccc(NC(=O)c4cc(C(F)(F)F)ccc4F)c3C)cnc2n1` [Example 223, 2-fluoro-N-(2-methyl-3-(2-(methylamino)pyrido[2,3-d]pyrimidin-6-yl)phenyl)-5-(trifluoromethyl) benzamide] the pIC50 was no less than 4.60.
`CCN(CC)CCNC(=O)c1cc(NC(=O)c2ccc(C)c(-c3ccc4nc(N)ncc4c3)c2)cc(C(F)(F)F)c1` [Example 7] was tested, and the pIC50 was no less than 4.60.
`Cc1ccc(C(=O)Nc2cccc(C(F)(F)F)c2F)cc1-c1ccc2nc(N)ncc2c1` [Example 19, 3-(2-amino-6-quinazolinyl)-N-(2-fluoro-3-(trifluoromethyl)phenyl)-4-methylbenzamide] was tested, and the pIC50 was no less than 4.60.
`Cc1ccc(C(=O)Nc2cccc(C#N)c2)cc1-c1ccc2nc(N)ncc2c1` [Example 429, 3-(2-amino-6-quinazolinyl)-N-(3-cyanophenyl)-4-methylbenzamide] showed a pIC50 of no less than 4.60.
With `CNc1ncc2cc(-c3cc(C(=O)Nc4ccc(Cl)c(C(F)(F)F)c4C)ccc3C)ccc2n1` [Example 3, N-(4-chloro-2-methyl-3-(trifluoromethyl)phenyl)-4-methyl-3-(2-(methylamino)-quinazolinyl)benzamide] the pIC50 was no less than 4.60.
`Cc1ccc(C(=O)Nc2cccc(C(F)(F)F)c2F)cc1-c1ccc2nc(NCCN3CCCC3)ncc2c1` [Example 26, N-(2-fluoro-3-(trifluoromethyl)phenyl)-4-methyl-3-(2-((2-(1-pyrrolidinyl)ethyl)amino)-6-quinazolinyl) benzamide] was tested, and the pIC50 was no less than 4.60.
`Cc1ccc(C(=O)Nc2ccc(C(C)(C)C)c(NC(=O)CN(C)C)c2)cc1-c1ccc2nc(N)ncc2c1` [Example 227, 3-(2-amino-6-quinazolinyl)-N-(4-(1,1-dimethylethyl)-3-((N,N-dimethylglycyl)amino)phenyl)-4-methylbenzamide] gave a pIC50 of no less than 4.60.
With `CNc1ncc2cc(-c3cc(C(=O)Nc4ccc(Cl)c(C(F)(F)F)c4)ccc3C)ccc2n1` [Example 12, N-(4-chloro-3-(trifluoromethyl)phenyl)-4-methyl-3-(2-(methylamino)-6-quinazolinyl)benzamide] the pIC50 was no less than 4.60.
Compound `Cc1ccc(C(=O)NC2CC2)cc1-c1ccc2nc(N)ncc2c1` [Example 40, 3-(2-amino-6-quinazolinyl)-N-cyclopropyl-4-methylbenzamide] has a pIC50 of no less than 4.60.
For `CNc1ncc2cc(-c3cccc(NC(=O)c4cc(C(F)(F)F)cc(C(F)(F)F)c4)c3C)cnc2n1` [Example 221], the pIC50 was no less than 4.60.
Compound `Cc1ccc(C(=O)Nc2cc(C(F)(F)F)ccc2F)cc1-c1ccc2nc(N)ncc2c1` [Example 280, 3-(2-amino-6-quinazolinyl)-N-(2-fluoro-5-(trifluoromethyl)phenyl)-4-methylbenzamide] has a pIC50 of no less than 4.60.
Work on `Cc1ccc(C(=O)Nc2cccc(C(F)(F)F)c2F)cc1-c1ccc2nc(NC3CCN(C)CC3)ncc2c1` [Example 25] yielded a pIC50 of no less than 4.60.
Work on `CN1CCC(c2cc(NC(=O)c3csc(-c4ccc5nc(N)ncc5c4)c3)cc(C(F)(F)F)c2)CC1` [Example 58, 5-(2-amino-6-quinazolinyl)-N-(3-(1-methyl-4-piperidinyl)-5-(trifluoromethyl)phenyl)-3-thiophenecarboxamide] yielded a pIC50 of no less than 4.60.
Compound `Cc1ccc(C(=O)Nc2cc(C(=O)NCCN3CCOCC3)cc(C(F)(F)F)c2)cc1-c1ccc2nc(N)ncc2c1` [Example 6] has a pIC50 of no less than 4.60.
`Cc1ccc(C(=O)Nc2cc(C(F)(F)F)ccc2N2CC[C@@H](N(C)C)C2)cc1-c1ccc2nc(N)ncc2c1` [Example 75, 3-(2-amino-6-quinazolinyl)-N-(2-((3R)-3-(dimethylamino)-1-pyrrolidinyl)-5-(trifluoromethyl)phenyl)-4-methylbenzamide] showed a pIC50 of no less than 4.60.
Compound `Nc1ncc2cc(-c3cccc(C(=O)Nc4cccc(C(F)(F)F)c4)c3)ccc2n1` [Example 52, 3-(2-amino-6-quinazolinyl)-N-(3-(trifluoromethyl)phenyl)benzamide] has a pIC50 of no less than 4.60.
For `CNc1ncc2cc(-c3ccc(F)c(C(=O)Nc4cc(C(F)(F)F)ccc4N(C)CCCN(C)C)c3)ccc2n1` [Example 9, N-(2-((3-(dimethylamino)propyl)(methyl)amino)-5-(trifluoromethyl)phenyl)-2-fluoro-5-(2-(methylamino)-6-quinazolinyl)benzamide], the pIC50 was no less than 4.60.
`CNc1ncc2cc(-c3cc(C(=O)Nc4cc(C(C)(C)C)ccc4NC(=O)CN4CCOCC4)ccc3C)cnc2n1` [Example 192] showed a pIC50 of no less than 4.60.
Compound `COc1ccc(NC(=O)c2ccc(C)c(-c3ccc4nc(N)ncc4c3)c2)c(OC)c1` [Example 270, 3-(2-amino-6-quinazolinyl)-N-(2,4-bis(methyloxy)phenyl)-4-methylbenzamide] has a pIC50 of no less than 4.60.
Compound `CCN(CC)CCOc1ccc(NC(=O)c2ccc(C)c(-c3ccc4nc(N)ncc4c3)c2)c(OC)c1` [Example 70, 3-(2-amino-6-quinazolinyl)-N-(4-((2-(diethylamino)ethyl)oxy)-2-(methyloxy)phenyl)-4-methylbenzamide] has a pIC50 of no less than 4.60.
Work on `Nc1ncc2cc(-c3ccc(F)c(NC(=O)c4cc(C(F)(F)F)ccc4F)c3)ccc2n1` [Example 433, N-(5-(2-aminoquinazolin-6-yl)-2-fluorophenyl)-2-fluoro-5-(trifluoromethyl)benzamide] yielded a pIC50 of no less than 4.60.
`COc1cccc(NC(=O)c2ccc(C)c(-c3ccc4nc(N)ncc4c3)c2)c1OC` [Example 283, 3-(2-amino-6-quinazolinyl)-N-(5,6-bis(methyloxy)-phenyl)-4-methylbenzamide] was tested, and the pIC50 was no less than 4.60.
`CCc1ccnc(NC(=O)c2ccc(C)c(-c3ccc4nc(N)ncc4c3)c2)c1` [Example 340, 3-(2-amino-6-quinazolinyl)-N-(4-ethyl-2-pyridinyl)-4-methylbenzamide] was tested, and the pIC50 was no less than 4.60.
`Nc1ncc2cc(-c3cc(C(=O)Nc4cc(C(F)(F)F)ccc4N4CCCC4)ccc3Cl)ccc2n1` [Example 155, 3-(2-amino-6-quinazolinyl)-4-chloro-N-(2-(1-pyrrolidinyl)-5-(trifluoromethyl)phenyl)benzamide] showed a pIC50 of no less than 4.60.
`Cc1ccc(C(=O)Nc2ccc(C(C)(C)C)cc2)cc1-c1ccc2nc(N)ncc2c1` [Example 128, 3-(2-amino-6-quinazolinyl)-N-(4-(1,1-dimethylethyl)phenyl)-4-methylbenzamide] was tested, and the pIC50 was no less than 4.60.

From patent US20070054916A1, “Aryl nitrogen-containing bicyclic compounds and methods of use” (Amgen Inc., priority 2004, published 2007)
